According to patent US20230002344A1, “NOVEL BENZOTHIOPHENE DERIVATIVES AND USE THEREOF FOR STIMULATING MITOCHONDRIAL TURNOVER” (NIBN, The National Institute For Biotechnology In The Negev …, priority 2019, published 2023):
Each block holds one molecule with its values, some of them ahead of it.

How the values were obtained:
Format in all cases: cell-based
primary beta-cells = experiment: Basal oxygen consumption rate in primary beta-cells; conditions: 1 mg/ml, 72 hours
Experimental: (§1) INS1 (an insulin secreting cell line) cells (FIGS. 1A and 1B) and primary beta-cells (FIG. 1C) were treated with 1 mg/ml doxycycline for 72 hours. […] FIGS. 1B and 1C show basal Oxygen Consumption Rate (OCR) measured with Seahorse XF 24 respirometer. Average of 4 wells +/−SEM.

INS1 cells [1] = experiment: Cell growth rate under doxycycline; conditions: 1 mg/ml, 24, 48 and 72 hours
Experimental: as §1

[2] = tested on: INS1 cells expressing MitoTimer; experiment: MitoTimer red/green ratio high-content screen and dose-response; conditions: 18 h, Rapamycin 100 nM; for MitoTimer red/green ratio (known modulators): Urolithin 50 uM, Bafilomycin 200 nM, Chloroquine 20 uM
Experimental: INS1 cells were stably transduced with MitoTimer by lentiviral infection and were tested using known modulators of autophagy. The paradigm used was based on previous reports showing that the shift in emission from green to red occurs within 18 hours. Assuming that this shift is constant, changes in red FI occurring during this frame of time can result from an effect on MitoTimer clearance and not from an effect on synthesis. The paradigm employed consisted therefore of a treatment lasting 18 hours followed by imaging.
Stimulators of mitochondrial clearance were defined as those inducing a red-to-green FI below −3 and a red intensity below −5.1. Suppressors of mitochondrial clearance were defined as those inducing a red-to-green FI above 10.34 and a red intensity above 4.5. […] Compounds displaying high green FI (above 15) were also discarded to prevent the inclusion of autofluorescent molecules. Only molecules that filled the above criteria in both duplicates were further tested.
The screen was performed during 8 sessions in Weizmann institute. All compounds were tested at a concentration of 10 μM, in duplicates. The images were processed to reduce background (using Metamorph software) and then analyzed in GeneData software.
We subjected those compounds to a dose-response assay (concentrations: 10, 3.33, 1.11, 0.37 and 0.12 μM).
MitoTimer expressing INS1 cells generation, Cell Culture and treatments. MitoTimer-reporter was cloned into the pHAGE2 lenti-vector under the full-length EF1-alpha promoter to obtain constitutive expression. For the HCS, INS1 cells were infected with lentivirus carrying mitochondrial complex-I-targeted-MitoTimer plasmid. Highly expressing cells were selected by high speed fluorescence activated cell sorter (SY3200 cell sorter, Synergy, iCyt) and kept by the addition of puromycin (1 mg . L-1) in the cell media. Cells were thawed before each experiment, and MitoTimer expression checked through fluorescence.
High-Content Screening. […] HCS assay was developed at the Drug Discovery Unit, INCPM, Weizmann Institute of Science. […] Briefly, cells were treated with 10 uM of each compounds for 18 h and imaged in two wavelengths (FITC—excitation […], emission 520/35 nm and TRITC—excitation 543/22 nm, emission 593/40 nm) at ImageXpress Micro High-Content Imaging System/Molecular Devices. Rapamycin 100 nM was used as a control. In each cell plate, the neutral (DMSO) and positive control (Rapamycin) were repeated in 16 replicates while the treatments were performed in duplicates. Each plate was replicated and only hits found in the 2 independent plates were considered. Two fields of each well were analyzed, what normally allowed the analysis of 20-40 cells per condition. MitoTimer red/green ratio for every cell was done in MetaXpress. […] The compounds which affected MitoTimer red/green ratio in a dose response, ranging from […], were classified as a hit.
Individual cells were identified using the red channel, and red and green MitoTimer fluorescence were analyzed and ratio determined per cell.

INS1 cells [3] = experiment: Mitochondrial mass by Mitotracker green staining; conditions: 18 h; SPB08007 25 μM, MWP00839 11.5 μM, Urolithin A 25 μM
Experimental: The Z-score depicts the standard deviation from the neutral control (DMSO). In FIG. 3C: Mitochondrial mass in INS1 cells treated for 18 hours with either DMSO (control), Urolithin A (25 μM), SPB08007 (“SBP”) (25 μM) or MWP00839 (“MWP”) (11.5 μM) and then stained with Mitotracker green (200 nM). In FIG. 3D: SPB08007 and MWP00839 increase the number of mitochondria inside autolysosomes. INS1 cells expressing mCherry-GFP were exposed to SPB08007, MWP00839, and DMSO for 8 hours and then subjected to confocal microscopy. The area of red fluorescence in the taken images was determined. N=3+/−SEM pANOVA<0.05. FIG. 3E provides representative images. […] FIG. 3F provides the Western blot against LC3 in INS1 cells treated with the compounds in presence or absence of bafilomycin (+b) for the last 2 hours.
Mitotracker Green Fluorescence, Anion Radical Superoxide and Mitochondrial Membrane Potential. INS1 cells were seeded into wells of a 96-wells glass bottom cell culture plate (CELLSTAR) at a density of 2*10^4 cells/well. To assess mitochondrial clearance, a pulse-chase experiment was performed. […] Results are expressed as the percentage of MTG fluorescence relative to MTG fluorescence of the “time 0” control. […] Integrated fluorescence of each field was analyzed in Image J after background subtraction and threshold (IsoData) application. Twenty-four fields of each condition were analyzed in each experiment.

basal oxygen consumption rate (OCR) (primary beta-cells): impairs
SMILES: C[C@H]1c2cccc(O)c2C(=O)C2=C(O)[C@]3(O)C(=O)C(C(N)=O)=C(O)[C@@H](N(C)C)[C@@H]3[C@@H](O)[C@@H]21 [Doxycycline]
cell growth (INS1 cells [1]): impairs

SMILES: O=c1oc2cc(O)ccc2c2ccc(O)cc12 [Urolithin A, reference compound]
MitoTimer red/green ratio (known modulators) [2]: significantly reduced
mitochondrial mass (mitotracker green fluorescence) (INS1 cells [3]): reduction

SMILES: CO/C1=C\C(C)=C\[C@@H](C)[C@@H](O)[C@@H](C)C/C(C)=C/C=C/[C@H](OC)[C@@H]([C@@H](C)[C@@H](O)[C@H](C)[C@@]2(O)C[C@@H](O)[C@H](C)[C@@H](C(C)C)O2)OC1=O [bafilomycin A1, reference compound]
MitoTimer red/green ratio (known modulators) [2]: increased

SMILES: CO[C@H]1C[C@@H]2CC[C@@H](C)[C@@](O)(O2)C(=O)C(=O)N2CCCC[C@H]2C(=O)O[C@H]([C@H](C)C[C@@H]2CC[C@@H](O)[C@H](OC)C2)CC(=O)[C@H](C)/C=C(\C)[C@@H](O)[C@@H](OC)C(=O)[C@H](C)C[C@H](C)/C=C/C=C/C=C/1C [Rapamycin, reference compound]
increase of MitoTimer red/green ratio [2]: 50%
